Results taken from US20160331775A1, “E-SELECTIN INHIBITION WORKS IN COMBINATION WITH LOW-MOLECULAR WEIGHT HEPARIN TO DECREASE VENOUS THROMBOSIS AND BLEEDING RISK” (THE REGENTS OF THE UNIVERSITY OF MICHIGAN, priority 2015, published 2016).

Test: tail vein bleeding time
Format: in vivo, mouse
Conditions: GMI-1271 alone, 20/kg IP BID; non-treated controls 53.8±7.5; not significantly elevated

With `CC[C@H]1C[C@@H](C(=O)NCCNC(=O)CCOCCOCCOCCOCCOCCOCCOCCOCCOCCOCCOCCOC)C[C@@H](O[C@@H]2O[C@H](CO)[C@H](O)[C@H](O[C@@H](CC3CCCCC3)C(=O)[O-])[C@H]2NC(C)=O)[C@@H]1O[C@@H]1O[C@@H](C)[C@@H](O)[C@@H](O)[C@@H]1O.[Na+]` [GMI-1271] the tail bleeding time was 67.00 ± 44 s.
